Experimental data: patent US11959486B2, “Stable liquid formulation of AMG 416 (etelcalcetide)” (AMGEN INC., priority 2013, dated 2024)

Experiment: Stability of liquid formulations over range of pH 2-6 in succinate-buffered saline, HPLC purity, with extrapolation (Example 3)
Format: physicochemical
Protocol: The solution was divided evenly into five 4 mL portions which were adjusted to pH 2, 3, 4, 5 and 6, respectively, with NaOH and HCl as needed. Three 1 mL solutions were aliquoted from each portion and incubated at 2-8° C., room temperature (about 25° C.), and 40° C., respectively. The remaining 1 mL solution in each aliquot was diluted with pH 4.5 succinate buffered saline to 4 mL of 2.5 mg/mL peptide concentration, pH adjusted, and incubated in the same manner.
Based on the extent of degradation at 28 days, predictions of the extent of degradation were calculated as described, supra. Bolded values indicate conditions which show less than 10% degradation, and which may be preferred for a liquid formulation. Conditions where the sample at 28 days show slightly higher purity than the initial data are presented as 0.0% for all projections.
At each pH value, the degradation data for each of three temperatures is compared to data from the other two temperatures to calculate the observed acceleration. The predicted acceleration is by simple application of Arrhenius principles as described above.

[1] = 2.5 mg/mL, pH 2, from 2-8° C. data
[2] = 2.5 mg/mL, pH 2, from 40° C. data
[3] = 2.5 mg/mL, pH 3, from 2-8° C. data
[4] = 2.5 mg/mL, pH 3, from 40° C. data
[5] = 2.5 mg/mL, pH 4, from 2-8° C. data
[6] = 2.5 mg/mL, pH 4, from 40° C. data
[7] = 2.5 mg/mL, pH 5, from 2-8° C. data
[8] = 2.5 mg/mL, pH 5, from 40° C. data
[9] = 2.5 mg/mL, pH 6, from 2-8° C. data
[10] = 2.5 mg/mL, pH 6, from 40° C. data
[11] = 10 mg/mL, pH 2, from 2-8° C. data
[12] = 10 mg/mL, pH 2, from 40° C. data
[13] = 10 mg/mL, pH 3, from 2-8° C. data
[14] = 10 mg/mL, pH 3, from 40° C. data
[15] = 10 mg/mL, pH 4, from 2-8° C. data
[16] = 10 mg/mL, pH 4, from 40° C. data
[17] = 10 mg/mL, pH 5, from 2-8° C. data
[18] = 10 mg/mL, pH 5, from 40° C. data
[19] = 10 mg/mL, pH 6, from 2-8° C. data
[20] = 10 mg/mL, pH 6, from 40° C. data

CC(=O)N[C@H](CSSC[C@H](N)C(=O)O)C(=O)N[C@H](C)C(=O)N[C@H](CCCNC(=N)N)C(=O)N[C@H](CCCNC(=N)N)C(=O)N[C@H](CCCNC(=N)N)C(=O)N[C@H](C)C(=O)N[C@H](CCCNC(=N)N)C(N)=O [AMG 416, N-acetyl-D-cysteinyl-D-alanyl-D-arginyl-D-arginyl-D-arginyl-D-alanyl-D-arginamide disulfide with L-cysteine]
Observed degradation at 28 days (2.5 mg/mL, pH 2, 2-8° C.): 0.0% | Observed degradation at 28 days (2.5 mg/mL, pH 2, 40° C.): 9.1% | Observed degradation at 28 days (2.5 mg/mL, pH 2, RT): 0.6% | Calculated Degradation 1 y 2-8° C. [1]: 0.0% | Calculated Degradation 1 y RT [1]: 0.0% | Calculated Degradation 2 y 2-8° C. [1]: 0.0% | Calculated Degradation 2 y RT [1]: 0.0% | Calculated Degradation 1 y [2]: 116.5% | Calculated Degradation 1 y RT [2]: 29.1% | Calculated Degradation 2 y 2-8° C. [2]: 14.6% | Calculated Degradation 2 y RT [2]: 58.3% | Calculated Degradation 1 y (2.5 mg/mL, pH 2, from RT data): 7.9% | Calculated Degradation 1 y RT (2.5 mg/mL, pH 2, from RT data): 7.9% | Calculated Degradation 2 y 2-8° C. (2.5 mg/mL, pH 2, from RT data): 4.0% | Calculated Degradation 2 y RT (2.5 mg/mL, pH 2, from RT data): 15.9% | Observed degradation at 28 days (2.5 mg/mL, pH 3, 2-8° C.): 0.0% | Observed degradation at 28 days (2.5 mg/mL, pH 3, 40° C.): 1.8% | Observed degradation at 28 days (2.5 mg/mL, pH 3, RT): 0.0% | Calculated Degradation 1 y 2-8° C. [3]: 0.0% | Calculated Degradation 1 y RT [3]: 0.0% | Calculated Degradation 2 y 2-8° C. [3]: 0.0% | Calculated Degradation 2 y RT [3]: 0.0% | Calculated Degradation 1 y [4]: 22.5% | Calculated Degradation 1 y RT [4]: 5.6% | Calculated Degradation 2 y 2-8° C. [4]: 2.8% | Calculated Degradation 2 y RT [4]: 11.3% | Calculated Degradation 1 y (2.5 mg/mL, pH 3, from RT data): 0.0% | Calculated Degradation 1 y RT (2.5 mg/mL, pH 3, from RT data): 0.0% | Calculated Degradation 2 y 2-8° C. (2.5 mg/mL, pH 3, from RT data): 0.0% | Calculated Degradation 2 y RT (2.5 mg/mL, pH 3, from RT data): 0.0% | Observed degradation at 28 days (2.5 mg/mL, pH 4, 2-8° C.): −0.1% | Observed degradation at 28 days (2.5 mg/mL, pH 4, 40° C.): 6.9% | Observed degradation at 28 days (2.5 mg/mL, pH 4, RT): 0.3% | Calculated Degradation 1 y 2-8° C. [5]: 0.0% | Calculated Degradation 1 y RT [5]: 0.0% | Calculated Degradation 2 y 2-8° C. [5]: 0.0% | Calculated Degradation 2 y RT [5]: 0.0% | Calculated Degradation 1 y [6]: 88.7% | Calculated Degradation 1 y RT [6]: 22.2% | Calculated Degradation 2 y 2-8° C. [6]: 11.1% | Calculated Degradation 2 y RT [6]: 44.3% | Calculated Degradation 1 y (2.5 mg/mL, pH 4, from RT data): 3.6% | Calculated Degradation 1 y RT (2.5 mg/mL, pH 4, from RT data): 3.6% | Calculated Degradation 2 y 2-8° C. (2.5 mg/mL, pH 4, from RT data): 1.8% | Calculated Degradation 2 y RT (2.5 mg/mL, pH 4, from RT data): 7.2% | Observed degradation at 28 days (2.5 mg/mL, pH 5, 2-8° C.): 0.2% | Observed degradation at 28 days (2.5 mg/mL, pH 5, 40° C.): 26.1% | Observed degradation at 28 days (2.5 mg/mL, pH 5, RT): 2.9% | Calculated Degradation 1 y 2-8° C. [7]: 2.9% | Calculated Degradation 1 y RT [7]: 11.8% | Calculated Degradation 2 y 2-8° C. [7]: 5.9% | Calculated Degradation 2 y RT [7]: 23.5% | Calculated Degradation 1 y [8]: 333.6% | Calculated Degradation 1 y RT [8]: 83.4% | Calculated Degradation 2 y 2-8° C. [8]: 41.7% | Calculated Degradation 2 y RT [8]: 166.8% | Calculated Degradation 1 y (2.5 mg/mL, pH 5, from RT data): 37.7% | Calculated Degradation 1 y RT (2.5 mg/mL, pH 5, from RT data): 37.7% | Calculated Degradation 2 y 2-8° C. (2.5 mg/mL, pH 5, from RT data): 18.9% | Calculated Degradation 2 y RT (2.5 mg/mL, pH 5, from RT data): 75.5% | Observed degradation at 28 days (2.5 mg/mL, pH 6, 2-8° C.): 0.8% | Observed degradation at 28 days (2.5 mg/mL, pH 6, 40° C.): 45.0% | Observed degradation at 28 days (2.5 mg/mL, pH 6, RT): 18.1% | Calculated Degradation 1 y 2-8° C. [9]: 10.7% | Calculated Degradation 1 y RT [9]: 43.0% | Calculated Degradation 2 y 2-8° C. [9]: 21.5% | Calculated Degradation 2 y RT [9]: 86.0% | Calculated Degradation 1 y [10]: 575.7% | Calculated Degradation 1 y RT [10]: 143.9% | Calculated Degradation 2 y 2-8° C. [10]: 72.0% | Calculated Degradation 2 y RT [10]: 287.8% | Calculated Degradation 1 y (2.5 mg/mL, pH 6, from RT data): 231.0% | Calculated Degradation 1 y RT (2.5 mg/mL, pH 6, from RT data): 231.0% | Calculated Degradation 2 y 2-8° C. (2.5 mg/mL, pH 6, from RT data): 115.5% | Calculated Degradation 2 y RT (2.5 mg/mL, pH 6, from RT data): 462.1% | predicted degradation over 2 years at RT (2.5 mg/mL, pH range 2-4, extrapolated from the 2-8° C. data): less than 10% | Observed degradation at 28 days (10 mg/mL, pH 2, 2-8° C.): 0.3% | Observed degradation at 28 days (10 mg/mL, pH 2, 40° C.): 5.3% | Observed degradation at 28 days (10 mg/mL, pH 2, RT): 0.6% | Calculated Degradation at 1 y RT [11]: 15.4% | Calculated Degradation at 2 y 5° C. [11]: 7.7% | Calculated Degradation at 2 y RT [11]: 30.7% | Calculated Degradation at 360 d [11]: 3.8% | Calculated Degradation at 1 y RT [12]: 17.1% | Calculated Degradation at 2 y 5° C. [12]: 8.6% | Calculated Degradation at 2 y RT [12]: 34.2% | Calculated Degradation at 360 d [12]: 68.4% | Calculated Degradation at 1 y RT (10 mg/mL, pH 2, from RT data): 8.1% | Calculated Degradation at 2 y 5° C. (10 mg/mL, pH 2, from RT data): 4.0% | Calculated Degradation at 2 y RT (10 mg/mL, pH 2, from RT data): 16.1% | Calculated Degradation at 360 d (10 mg/mL, pH 2, from RT data): 8.1% | Observed degradation at 28 days (10 mg/mL, pH 3, 2-8° C.): −0.2% | Observed degradation at 28 days (10 mg/mL, pH 3, 40° C.): 1.1% | Observed degradation at 28 days (10 mg/mL, pH 3, RT): 0.2% | Calculated Degradation at 1 y RT [13]: 0.0% | Calculated Degradation at 2 y 5° C. [13]: 0.0% | Calculated Degradation at 2 y RT [13]: 0.0% | Calculated Degradation at 360 d [13]: 0.0% | Calculated Degradation at 1 y RT [14]: 3.5% | Calculated Degradation at 2 y 5° C. [14]: 1.8% | Calculated Degradation at 2 y RT [14]: 7.0% | Calculated Degradation at 360 d [14]: 14.1% | Calculated Degradation at 1 y RT (10 mg/mL, pH 3, from RT data): 2.6% | Calculated Degradation at 2 y 5° C. (10 mg/mL, pH 3, from RT data): 1.3% | Calculated Degradation at 2 y RT (10 mg/mL, pH 3, from RT data): 5.1% | Calculated Degradation at 360 d (10 mg/mL, pH 3, from RT data): 2.6% | Observed degradation at 28 days (10 mg/mL, pH 4, 2-8° C.): −0.1% | Observed degradation at 28 days (10 mg/mL, pH 4, 40° C.): 14.3% | Observed degradation at 28 days (10 mg/mL, pH 4, RT): 0.7% | Calculated Degradation at 1 y RT [15]: 0.0% | Calculated Degradation at 2 y 5° C. [15]: 0.0% | Calculated Degradation at 2 y RT [15]: 0.0% | Calculated Degradation at 360 d [15]: 0.0% | Calculated Degradation at 1 y RT [16]: 45.8% | Calculated Degradation at 2 y 5° C. [16]: 22.9% | Calculated Degradation at 2 y RT [16]: 91.7% | Calculated Degradation at 360 d [16]: >100% | Calculated Degradation at 1 y RT (10 mg/mL, pH 4, from RT data): 8.6% | Calculated Degradation at 2 y 5° C. (10 mg/mL, pH 4, from RT data): 4.3% | Calculated Degradation at 2 y RT (10 mg/mL, pH 4, from RT data): 17.1% | Calculated Degradation at 360 d (10 mg/mL, pH 4, from RT data): 8.6% | Observed degradation at 28 days (10 mg/mL, pH 5, 2-8° C.): 0.3% | Observed degradation at 28 days (10 mg/mL, pH 5, 40° C.): 34.9% | Observed degradation at 28 days (10 mg/mL, pH 5, RT): 5.6% | Calculated Degradation at 1 y RT [17]: 13.8% | Calculated Degradation at 2 y 5° C. [17]: 6.9% | Calculated Degradation at 2 y RT [17]: 27.6% | Calculated Degradation at 360 d [17]: 3.5% | Calculated Degradation at 1 y RT [18]: >100% | Calculated Degradation at 2 y 5° C. [18]: 55.9% | Calculated Degradation at 2 y RT [18]: >100% | Calculated Degradation at 360 d [18]: >100% | Calculated Degradation at 1 y RT (10 mg/mL, pH 5, from RT data): 71.4% | Calculated Degradation at 2 y 5° C. (10 mg/mL, pH 5, from RT data): 35.7% | Calculated Degradation at 2 y RT (10 mg/mL, pH 5, from RT data): >100% | Calculated Degradation at 360 d (10 mg/mL, pH 5, from RT data): 71.4% | Observed degradation at 28 days (10 mg/mL, pH 6, 2-8° C.): 1.9% | Observed degradation at 28 days (10 mg/mL, pH 6, 40° C.): 45.1% | Observed degradation at 28 days (10 mg/mL, pH 6, RT): 26.9% | Calculated Degradation at 1 y RT [19]: 95.7% | Calculated Degradation at 2 y 5° C. [19]: 47.8% | Calculated Degradation at 2 y RT [19]: >100% | Calculated Degradation at 360 d [19]: 23.9% | Calculated Degradation at 1 y RT [20]: >100% | Calculated Degradation at 2 y 5° C. [20]: 72.2% | Calculated Degradation at 2 y RT [20]: >100% | Calculated Degradation at 360 d [20]: >100% | Calculated Degradation at 1 y RT (10 mg/mL, pH 6, from RT data): >100% | Calculated Degradation at 2 y 5° C. (10 mg/mL, pH 6, from RT data): >100% | Calculated Degradation at 2 y RT (10 mg/mL, pH 6, from RT data): >100% | Calculated Degradation at 360 d (10 mg/mL, pH 6, from RT data): >100% | extrapolated degradation after 2 years at room temperature (2.5 or 10 mg/mL solutions at pH 3): less than 10% | pH of least degradation (28 day point, 10 and 2.5 mg/mL): approximately 3.0
